{"source": "patent US7279184B2", "about": "“Methods and compositions comprising Ilex” (HerbalScience, LLC, priority 2003, dated 2007)", "origin": "cited, not measured here", "data": [{"smiles": "Cn1cnc2c1c(=O)[nH]c(=O)n2C", "note": "[Theobromine, 3,7-dimethyl-xanthine]", "values": [{"measurement": "half-life after ingestion", "value": "approximately 6 hours"}]}]}
